Results from ChEMBL document CHEMBL1909046, “DrugMatrix in vitro pharmacology data”.

Columns and labels:
[1] = target: T1, Alpha-2A adrenergic receptor (Homo sapiens, UniProt P08913); type: cell membranes, Sf9, Membrane; details: sf9; further: in other assays of this panel Not Active means under 50% inhibition at 10 µM
T1 sequence (P08913 whole entry): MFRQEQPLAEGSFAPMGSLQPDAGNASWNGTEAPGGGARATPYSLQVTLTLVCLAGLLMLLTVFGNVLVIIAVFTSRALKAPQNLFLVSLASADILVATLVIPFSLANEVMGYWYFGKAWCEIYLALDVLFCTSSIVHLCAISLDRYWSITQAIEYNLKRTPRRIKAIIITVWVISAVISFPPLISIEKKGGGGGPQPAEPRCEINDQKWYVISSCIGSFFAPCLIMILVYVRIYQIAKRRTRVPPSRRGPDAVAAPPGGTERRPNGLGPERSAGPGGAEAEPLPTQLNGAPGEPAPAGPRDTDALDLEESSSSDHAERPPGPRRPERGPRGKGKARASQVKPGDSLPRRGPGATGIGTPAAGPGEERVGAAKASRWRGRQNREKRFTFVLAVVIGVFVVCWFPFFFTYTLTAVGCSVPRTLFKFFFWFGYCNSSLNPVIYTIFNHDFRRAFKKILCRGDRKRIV

[2] = target: Tyrosine-protein kinase Fyn (Homo sapiens, UniProt P06241); assay: biochemical; type: cell-based, Insect cells; details: insect cells;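 further: enzymatic inhibition of Fyn kinase activity measured with Poly(Glu:Tyr) as the phosphorylation substrate; in other assays of this panel Not Active means under 50% inhibition at 10 µM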
Tyrosine-protein kinase Fyn, sequence (P06241 whole entry): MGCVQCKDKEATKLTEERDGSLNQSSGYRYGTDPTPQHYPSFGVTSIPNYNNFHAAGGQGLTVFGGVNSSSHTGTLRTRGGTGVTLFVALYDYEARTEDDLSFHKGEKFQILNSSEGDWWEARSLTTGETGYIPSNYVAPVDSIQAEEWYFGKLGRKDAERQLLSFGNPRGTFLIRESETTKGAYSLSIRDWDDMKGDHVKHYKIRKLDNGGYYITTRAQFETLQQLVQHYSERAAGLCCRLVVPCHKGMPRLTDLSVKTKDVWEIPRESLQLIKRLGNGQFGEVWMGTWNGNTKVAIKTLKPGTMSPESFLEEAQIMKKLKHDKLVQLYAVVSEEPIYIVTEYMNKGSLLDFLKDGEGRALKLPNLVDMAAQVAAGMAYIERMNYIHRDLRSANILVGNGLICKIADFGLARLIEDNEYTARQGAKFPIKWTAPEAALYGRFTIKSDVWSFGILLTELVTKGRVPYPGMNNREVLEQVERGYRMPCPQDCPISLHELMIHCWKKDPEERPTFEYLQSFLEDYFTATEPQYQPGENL

[3] = DRUGMATRIX: Purinergic P2X radioligand binding (ligand: [3H] alpha, beta-Methylene-ATP); type: cell membranes, Oryctolagus cuniculus, New Zealand albino, Urinary bladder, Membrane; details: Not Active = under 50% inhibition at 10 µM
[4] = target: Estrogen receptor beta (Homo sapiens, UniProt Q92731); details: sf9; further: in other assays of this panel Not Active means under 50% inhibition at 10 µM
Estrogen receptor beta, sequence (Q92731 whole entry): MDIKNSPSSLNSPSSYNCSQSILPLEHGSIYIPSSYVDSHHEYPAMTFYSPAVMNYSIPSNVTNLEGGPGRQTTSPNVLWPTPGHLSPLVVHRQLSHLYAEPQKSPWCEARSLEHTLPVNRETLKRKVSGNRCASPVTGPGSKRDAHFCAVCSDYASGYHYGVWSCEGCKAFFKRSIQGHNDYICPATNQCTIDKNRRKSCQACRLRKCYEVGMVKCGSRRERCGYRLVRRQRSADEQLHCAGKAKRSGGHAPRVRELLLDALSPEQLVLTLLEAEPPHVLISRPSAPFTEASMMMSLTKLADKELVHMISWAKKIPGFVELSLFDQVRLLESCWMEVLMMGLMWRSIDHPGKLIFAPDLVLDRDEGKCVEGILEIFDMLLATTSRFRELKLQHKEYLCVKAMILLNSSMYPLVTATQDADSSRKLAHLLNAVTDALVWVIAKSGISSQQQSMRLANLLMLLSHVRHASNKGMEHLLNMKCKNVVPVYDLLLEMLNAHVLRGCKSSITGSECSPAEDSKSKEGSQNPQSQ

[5] = target: T2, Alpha-2C adrenergic receptor (Homo sapiens, UniProt P18825); assay: DRUGMATRIX: Adrenergic Alpha-2C radioligand binding (ligand: [3H] MK-912); type: cell membranes, Sf9, Membrane; details: sf9
T2 sequence (P18825 whole entry): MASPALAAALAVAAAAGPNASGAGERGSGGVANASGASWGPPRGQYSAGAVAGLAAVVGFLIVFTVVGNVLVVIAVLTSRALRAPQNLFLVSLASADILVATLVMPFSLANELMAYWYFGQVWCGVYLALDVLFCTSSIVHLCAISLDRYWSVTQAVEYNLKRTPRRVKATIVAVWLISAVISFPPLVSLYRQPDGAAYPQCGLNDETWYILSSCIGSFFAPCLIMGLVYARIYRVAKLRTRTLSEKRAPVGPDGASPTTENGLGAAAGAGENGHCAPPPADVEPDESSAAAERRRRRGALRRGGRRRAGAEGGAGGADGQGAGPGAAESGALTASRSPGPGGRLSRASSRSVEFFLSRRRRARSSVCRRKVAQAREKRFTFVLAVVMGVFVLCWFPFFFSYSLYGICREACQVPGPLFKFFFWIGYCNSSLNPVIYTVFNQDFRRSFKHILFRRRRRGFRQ

THIMEROSAL
IC50 ([1]; read-out: IC50): 532 nM
Ki ([1]; read-out: Ki): 200 nM
IC50 [2]: Not Active
Ki [2]: Not Active
IC50 [3]: Not Active
Ki [3]: Not Active
IC50 [4]: Not Active
Ki [4]: Not Active
IC50 ([5]; read-out: IC50): 5040 nM
Ki ([5]; read-out: Ki): 732 nM
